Experimental data reported in US20210069295A1, “GALECTINS CONTROL MTOR IN RESPONSE TO ENDOMEMBRANE DAMAGE AND PROVIDE A MECHANISM AND TARGET FOR THE TREATMENT OF AUTOPHAGY-RELATED DISEASES” (STC. UNM, priority 2017, published 2021).
Peptide text beside a SMILES is read from it.

Test system: LC3
Assay: Autophagy induction (LC3-II levels and LC3 puncta) in HEK293T cells
Type: cell-based
Conditions: SLC38A9 knockout and wild type HEK293T, 100 μM GPN
Description: (A) Analysis of mTOR activity and autophagy induction in HEK293T cells (WT, wild type) and SLC38A9 knockout (SLC38A9 KO) HEK293T derivatives treated with 100 μM GPN in full medium for the indicated time points. mTOR activity was monitored by immunoblotting analysis of S6K1 phosphorylation at T389 (p-T389). Autophagy induction was monitored by immunoblotting analysis of LC3-II. (B) Analysis of autophagy induction in SLC38A9 KO cells treated with GPN. WT and SLC38A9-KO (SLCKO) HEK293T cells were treated with 100 μM GPN in full medium for 30 min, and LC3 puncta were quantified by HC. […] Data, means±SEM, n≥3 independent experiments (500 primary objects counted per well; ≥ 5 wells/sample per each experiment), **p<0.01, ANOVA. […] WT and SLC38A9 KO HEK293T cells were treated with 100 μM GPN for 1 h followed by 1 h washout in full medium. mTOR activity was monitored by immunoblotting analysis of S6K1 p-T389 and ULK1 p-S757 phosphorylation. Autophagy induction was monitored by immunoblotting analysis of LC3-II. […] Control and FLAG-SLC38A9 overexpressing HEK293T cells were treated with 100 μM GPN in full medium for 30 min, and LC3 puncta were quantified by HC. […] Data, means±SEM, n≥3 independent experiments (500 primary objects counted per well; ≥5 wells/sample per each experiment), **p<0.01, ANOVA. […]

`NCC(=O)N[C@@H](Cc1ccccc1)C(=O)Nc1ccc2ccccc2c1` [GPN, glycyl-L-phenylalanine 2-naphththylamide] (HELM PEPTIDE1{G.F.[c1ccc2cc(N[*:1])ccc2c1]}$$$$V2.0) was tested, and the “LC3-II levels and LC3 puncta” value was “increased robustly”.
